Measured values taken from ChEMBL document CHEMBL4184286, “Discovery of morpholine-based aryl sulfonamides as Nav1.7 inhibitors” (Bioorg Med Chem Lett, 2018).

Legend:
[1] = target: T1, Sodium channel protein type 9 subunit alpha (Homo sapiens, UniProt Q15858); test: Antagonist activity at recombinant human Nav1.7 expressed in HEK293 cells assessed as reduction in peak inward current at 1 uM at -120 mV holding potential by patch clamp electrophysiology; assay type: cell-based
Target sequence in this assay (Q15858 whole entry, looked up): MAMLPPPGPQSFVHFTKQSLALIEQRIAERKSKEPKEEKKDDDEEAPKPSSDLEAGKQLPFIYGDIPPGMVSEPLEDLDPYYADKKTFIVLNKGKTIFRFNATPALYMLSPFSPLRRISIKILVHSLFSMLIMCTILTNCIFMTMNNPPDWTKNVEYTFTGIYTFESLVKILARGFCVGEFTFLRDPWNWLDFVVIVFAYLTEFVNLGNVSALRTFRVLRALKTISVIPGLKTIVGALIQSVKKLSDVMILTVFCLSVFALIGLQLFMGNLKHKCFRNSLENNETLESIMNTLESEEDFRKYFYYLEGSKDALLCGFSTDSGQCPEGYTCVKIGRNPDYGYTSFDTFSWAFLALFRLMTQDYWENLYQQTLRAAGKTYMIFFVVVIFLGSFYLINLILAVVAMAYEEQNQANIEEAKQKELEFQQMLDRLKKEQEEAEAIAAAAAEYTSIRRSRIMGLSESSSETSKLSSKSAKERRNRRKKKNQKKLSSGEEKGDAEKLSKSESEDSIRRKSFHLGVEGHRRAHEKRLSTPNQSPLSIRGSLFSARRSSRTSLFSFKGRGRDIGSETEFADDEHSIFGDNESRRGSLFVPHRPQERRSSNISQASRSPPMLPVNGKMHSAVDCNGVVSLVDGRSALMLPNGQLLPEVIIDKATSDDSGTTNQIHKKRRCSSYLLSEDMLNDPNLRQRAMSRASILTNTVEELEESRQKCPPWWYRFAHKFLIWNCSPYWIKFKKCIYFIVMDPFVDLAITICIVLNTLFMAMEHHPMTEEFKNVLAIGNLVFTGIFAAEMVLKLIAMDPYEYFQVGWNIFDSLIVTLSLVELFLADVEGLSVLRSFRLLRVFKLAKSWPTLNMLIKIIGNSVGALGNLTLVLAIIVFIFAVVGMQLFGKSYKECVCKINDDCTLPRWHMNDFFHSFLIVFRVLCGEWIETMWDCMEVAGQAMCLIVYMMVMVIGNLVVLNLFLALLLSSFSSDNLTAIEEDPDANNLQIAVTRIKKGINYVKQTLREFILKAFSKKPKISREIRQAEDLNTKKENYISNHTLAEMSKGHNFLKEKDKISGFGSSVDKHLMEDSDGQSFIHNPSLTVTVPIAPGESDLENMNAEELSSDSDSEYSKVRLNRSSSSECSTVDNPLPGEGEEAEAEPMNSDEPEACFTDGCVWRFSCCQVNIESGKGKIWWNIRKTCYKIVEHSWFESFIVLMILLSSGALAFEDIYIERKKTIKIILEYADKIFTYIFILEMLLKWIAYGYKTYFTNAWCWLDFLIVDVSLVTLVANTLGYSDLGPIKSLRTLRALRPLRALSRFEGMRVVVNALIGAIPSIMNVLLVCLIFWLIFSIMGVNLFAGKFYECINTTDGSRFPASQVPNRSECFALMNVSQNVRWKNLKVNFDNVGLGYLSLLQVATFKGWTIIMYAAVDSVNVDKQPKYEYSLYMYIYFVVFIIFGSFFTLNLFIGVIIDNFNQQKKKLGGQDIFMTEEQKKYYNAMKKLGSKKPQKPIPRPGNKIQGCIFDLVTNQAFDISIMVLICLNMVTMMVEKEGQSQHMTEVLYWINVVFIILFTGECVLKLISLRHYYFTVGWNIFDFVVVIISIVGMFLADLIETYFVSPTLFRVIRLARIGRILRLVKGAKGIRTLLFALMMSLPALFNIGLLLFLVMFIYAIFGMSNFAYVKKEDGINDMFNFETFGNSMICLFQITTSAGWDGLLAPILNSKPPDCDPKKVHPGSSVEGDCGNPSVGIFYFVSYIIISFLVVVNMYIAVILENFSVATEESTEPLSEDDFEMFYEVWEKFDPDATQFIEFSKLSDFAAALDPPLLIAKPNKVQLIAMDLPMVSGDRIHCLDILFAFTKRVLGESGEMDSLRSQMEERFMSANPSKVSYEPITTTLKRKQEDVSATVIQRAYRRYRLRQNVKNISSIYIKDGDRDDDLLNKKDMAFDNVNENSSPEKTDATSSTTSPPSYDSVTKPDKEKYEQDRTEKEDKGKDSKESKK

[2] = target: Sodium channel protein type 8 subunit alpha (Homo sapiens, UniProt Q9UQD0); test: Antagonist activity at recombinant human Nav1.6 assessed as reduction in channel current by barracuda automated electrophysiology method
[3] = target: T1, Sodium channel protein type 9 subunit alpha; test: Antagonist activity at recombinant human Nav1.7 expressed in HEK293 cells assessed as reduction in peak inward current at 100 nM at -120 mV holding potential by patch clamp electrophysiology; assay type: cell-based
Target sequence in this assay (Q15858 whole entry, looked up): as above

[4] = target: Sodium channel protein type 5 subunit alpha (Homo sapiens, UniProt Q14524); test: Antagonist activity at recombinant human Nav1.5 expressed in HEK293 cells assessed as reduction in channel current at -50 mV holding potential after 600 secs by barracuda automated electrophysiology method; assay type: ADME, cell-based
[5] = target: Sodium channel protein type 2 subunit alpha (Homo sapiens, UniProt Q99250); test: Antagonist activity at recombinant human Nav1.2 assessed as reduction in channel current by barracuda automated electrophysiology method
Chain of Sodium channel protein type 2 subunit alpha (Q99250 whole entry): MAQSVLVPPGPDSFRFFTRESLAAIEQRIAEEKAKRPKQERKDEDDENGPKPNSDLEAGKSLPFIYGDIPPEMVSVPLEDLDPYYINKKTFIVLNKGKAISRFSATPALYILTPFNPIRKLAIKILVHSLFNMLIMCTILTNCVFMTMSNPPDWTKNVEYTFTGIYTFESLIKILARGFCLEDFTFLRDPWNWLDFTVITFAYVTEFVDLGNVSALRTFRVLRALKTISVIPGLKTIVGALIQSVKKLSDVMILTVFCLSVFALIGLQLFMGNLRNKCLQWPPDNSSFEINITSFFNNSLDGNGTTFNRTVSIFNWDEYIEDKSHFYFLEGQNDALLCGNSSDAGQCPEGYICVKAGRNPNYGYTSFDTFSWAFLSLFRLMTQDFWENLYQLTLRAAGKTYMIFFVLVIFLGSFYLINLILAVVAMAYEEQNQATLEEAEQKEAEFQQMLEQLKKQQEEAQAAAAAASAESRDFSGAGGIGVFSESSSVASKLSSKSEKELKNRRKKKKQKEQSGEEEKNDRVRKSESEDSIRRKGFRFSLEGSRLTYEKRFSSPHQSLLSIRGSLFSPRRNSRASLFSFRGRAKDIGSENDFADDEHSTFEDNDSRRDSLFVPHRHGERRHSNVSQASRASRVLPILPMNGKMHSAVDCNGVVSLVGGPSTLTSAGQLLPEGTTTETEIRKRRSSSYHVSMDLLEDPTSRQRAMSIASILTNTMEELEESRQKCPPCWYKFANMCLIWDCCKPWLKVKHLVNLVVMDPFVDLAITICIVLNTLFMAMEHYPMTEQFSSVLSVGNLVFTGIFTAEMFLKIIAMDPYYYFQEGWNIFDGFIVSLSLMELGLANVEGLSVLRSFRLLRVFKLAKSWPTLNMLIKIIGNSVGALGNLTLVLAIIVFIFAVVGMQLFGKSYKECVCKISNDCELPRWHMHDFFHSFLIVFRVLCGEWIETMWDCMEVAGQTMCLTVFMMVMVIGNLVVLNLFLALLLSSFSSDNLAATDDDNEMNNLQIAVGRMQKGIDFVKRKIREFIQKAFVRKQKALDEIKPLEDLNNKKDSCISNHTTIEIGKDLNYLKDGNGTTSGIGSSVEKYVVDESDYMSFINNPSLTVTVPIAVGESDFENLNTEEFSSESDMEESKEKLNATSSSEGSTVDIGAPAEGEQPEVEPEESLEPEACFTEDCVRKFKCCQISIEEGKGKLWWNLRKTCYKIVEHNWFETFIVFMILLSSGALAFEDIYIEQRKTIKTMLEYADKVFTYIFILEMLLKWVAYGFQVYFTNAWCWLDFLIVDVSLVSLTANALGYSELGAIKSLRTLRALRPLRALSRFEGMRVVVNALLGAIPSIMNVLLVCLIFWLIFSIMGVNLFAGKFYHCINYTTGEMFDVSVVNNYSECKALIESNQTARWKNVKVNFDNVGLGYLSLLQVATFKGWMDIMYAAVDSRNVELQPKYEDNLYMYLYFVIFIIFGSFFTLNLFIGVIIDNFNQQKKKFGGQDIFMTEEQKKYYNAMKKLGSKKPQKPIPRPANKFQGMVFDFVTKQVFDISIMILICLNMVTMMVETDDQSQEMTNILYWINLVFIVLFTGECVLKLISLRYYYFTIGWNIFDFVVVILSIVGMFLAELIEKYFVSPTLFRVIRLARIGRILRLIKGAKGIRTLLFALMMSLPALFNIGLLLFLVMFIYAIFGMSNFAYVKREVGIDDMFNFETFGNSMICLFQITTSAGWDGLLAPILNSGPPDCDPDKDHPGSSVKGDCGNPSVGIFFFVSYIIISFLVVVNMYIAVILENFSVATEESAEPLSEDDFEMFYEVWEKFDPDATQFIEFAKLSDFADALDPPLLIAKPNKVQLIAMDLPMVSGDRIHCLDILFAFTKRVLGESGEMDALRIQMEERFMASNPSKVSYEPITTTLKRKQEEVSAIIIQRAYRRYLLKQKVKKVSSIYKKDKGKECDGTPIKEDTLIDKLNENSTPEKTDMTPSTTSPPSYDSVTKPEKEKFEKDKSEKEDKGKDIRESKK

[6] = target: T1, Sodium channel protein type 9 subunit alpha; test: Antagonist activity at recombinant human Nav1.7 expressed in HEK293 cells assessed as reduction in peak inward current at -65 mV holding potential by patch clamp electrophysiology; assay type: cell-based
Target sequence in this assay (Q15858 whole entry): as the sequence (Q15858 whole entry, looked up) above

[7] = target: T1, Sodium channel protein type 9 subunit alpha; test: Antagonist activity at recombinant human Nav1.7 expressed in HEK293 cells assessed as reduction in channel current at -60 mV holding potential after 600 secs by barracuda automated electrophysiology method; assay type: cell-based
Target sequence in this assay (Q15858 whole entry): as the sequence (Q15858 whole entry, looked up) above

inhibition [1]: 48%
IC50 [2]: 1.6 µM
inhibition [3]: 8%
IC50 [5]: 1.5 µM
IC50 [6]: 0.011 µM
IC50 [7]: 0.041 µM
SMILES: CC1(C)CN[C@H](c2cc(Cl)cc(Cl)c2)[C@@H](Oc2cc(F)c(S(=O)(=O)Nc3ncns3)cc2F)O1
IC50 [4]: 6 µM
